Experimental data reported in article PMC10864208, “Characterizing the protein–protein interaction between MDM2 and 14-3-3σ; proof of concept for small molecule stabilization” (The Journal of Biological Chemistry, 2024).
Read-outs that look alike come from different tables or passages of the source. Non-standard residues stand in square brackets, D forms with d. Residues, ends and D or L forms follow the SMILES beside them. pS = N[C@@H](COP(=O)(O)O)C(=O)O

Columns and labels:
[1] = biological target: 14-3-3σ/MDM2_179-193^pS186 peptide (Homo sapiens, UniProt P31947+Q00987); assay: biochemical
Experimental: (§2) For all experiments, a fixed concentration of 10 nM fluorescently labeled peptide (FITC) was used. […] All data was analyzed using GraphPad Prism 7 and sigmoidal curves were fitted using the following equation: Y=Bottom + (Top-Bottom)/(1+10ˆ((Log app.Kd-X)∗HillSlope)), where Y = mP value; X = log 14-3-3 concentration; top and bottom = plateaus in mP.

[2] = biological target: T1, 14-3-3σ (Homo sapiens, UniProt P31947); assay: fluorescence polarization (FP), direct binding to 14-3-3σ; conditions: for maximum polarization level (in words) / binding to 14-3-3σ by FP (in words): FITC-labeled peptide 10 nM; for maximum polarization level (in words): 14-3-3σ titration; for binding to 14-3-3σ by FP (in words): pH 7.5
T1 sequence (P31947 1-248): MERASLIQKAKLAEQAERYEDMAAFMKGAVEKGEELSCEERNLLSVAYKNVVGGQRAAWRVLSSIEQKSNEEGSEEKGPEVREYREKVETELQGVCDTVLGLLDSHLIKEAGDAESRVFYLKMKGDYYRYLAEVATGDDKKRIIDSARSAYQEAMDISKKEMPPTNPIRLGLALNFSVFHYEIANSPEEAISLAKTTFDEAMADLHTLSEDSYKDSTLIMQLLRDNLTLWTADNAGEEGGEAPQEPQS
Experimental: as §2
(§3) Both proteins were prepared via the following procedure:
(§4) For all experiments a fixed concentration of 10 nM fluorescently labelled peptide (FITC) was used. […] All data was analysed using GraphPad Prism 7 and sigmoidal curves were fitted using the following equation:

[3] = biological target: T2, 14-3-3ζ (Homo sapiens, UniProt P63104); assay: fluorescence polarization (FP), direct binding to 14-3-3ζ
T2 sequence (P63104 1-245): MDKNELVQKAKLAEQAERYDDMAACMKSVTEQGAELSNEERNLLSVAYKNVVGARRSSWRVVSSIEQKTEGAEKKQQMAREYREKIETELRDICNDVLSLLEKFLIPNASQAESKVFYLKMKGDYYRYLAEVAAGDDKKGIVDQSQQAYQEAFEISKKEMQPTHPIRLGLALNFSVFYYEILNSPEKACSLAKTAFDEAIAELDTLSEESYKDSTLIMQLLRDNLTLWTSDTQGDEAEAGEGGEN
Experimental: as §2, §3, §4

[4] = tested on: 14-3-3σ/MDM2_159-173^pS166 peptide; assay: FP, FC-A effect on 14-3-3σ/MDM2 159-173 pS166; format: binding; conditions: 1.0 mM FC-A, 10 nM FITC-labeled MDM2_159-173^pS166; accurate fit not obtained
From the text: (§1) . Red arrows highlight peaks for the ternary complex.

[5] = tested on: 14-3-3σ/MDM2 complex; assay: native mass spectrometry, ternary complex with FC-A; format: binding; conditions: for relative abundance of ternary complex 14-3-3σ + MDM2 + FC-A (native MS): pH 6.8, SD, n = 3
Experimental: as §1
14-3-3 σ was buffer exchanged into 100 mM ammonium acetate pH 6.8 using a 30 kDa molecular weight cut-off Amicon Ultra centrifugal filter (Merck Millipore) and stored at −80 °C prior to use. […] . All native MS experiments were performed on an Orbitrap Eclipse Tribrid mass spectrometer (Thermo Fisher Scientific, Bremen) coupled to a nanoelectrospray source that used gold-coated borosilicate glass capillaries, pulled in-house. Positive ionization mode was used throughout with the capillary voltage set to 1.2 kV. The source temperature was set at 275 °C, in-source dissociation at 25, S-lens RF at 100. High pressure mode was used and a mass range of 2000 to 8000 m/z used to monitor the binding equilibria. Mass spectra were acquired using a maximum ion injection time of 50 ms. The automatic gain control was set to 1 x 10^6 and the ions detected in the Orbitrap with resolution set to 7500. All data was analyzed using XCalibur (v.4.1). All proteins and protein complexes were identified based on their theoretical mass.
Analytical grade ammonium acetate and LC-MS grade Dimethyl Sulfoxide (DMSO) were purchased from Fisher Scientific. 14-3-3 σ was buffer exchanged into 100 mM ammonium acetate pH 6.8 using a 30 kDa molecular weight cut-off Amicon Ultra centrifugal filter (Merck Millipore) and stored at -80 °C prior to use. The lyophilised MDM2161-191^pS166/pS186 31mer peptide (see Table S4) was diluted into 100mM ammonium acetate pH 6.8. […] . To quantify each complex, the relative abundance of the complexes observed was assumed to reflect their abundance in solution. Due to overlapping peaks, 15+ ions were excluded from analysis. […] . Standard deviations of the abundance of each complex were calculated from 3 replicates.

[6] = tested on: 14-3-3 PPIs; conditions: cited from earlier work
From the text: To investigate the feasibility of this, the effect of fusicoccin A (FC-A) on the PPI was studied using FP, ITC, and native MS.

[7] = tested on: 14-3-3σ and 14-3-3ζ; assay: ITC, mono-phosphorylated MDM2 peptides; format: binding; conditions: N-acetylated peptide 1.0 mM into 14-3-3 100 µM, 25 °C, pH 7.5, Malvern MicroCal ITC200

`CC[C@H](C)[C@H](NC(=O)[C@H](CO)NC(=O)[C@H](CC(=O)O)NC(=O)[C@H](COP(=O)(O)O)NC(=O)[C@H](CCCCN)NC(=O)[C@H](Cc1c[nH]cn1)NC(=O)[C@H](CCCNC(=N)N)NC(=O)[C@H](CCCCN)NC(=O)[C@H](CCCNC(=N)N)NC(=O)[C@H](CCC(N)=O)NC(=O)[C@H](CCCNC(=N)N)NC(C)=O)C(=O)N[C@@H](CO)C(=O)N[C@@H](CC(C)C)C(=O)N[C@@H](CO)C(=O)N[C@@H](Cc1ccccc1)C(N)=O` [MDM2_179-193^pS186] (Ac-RQRKRHK[pS]DSISLSF-NH2) gave a Kd [1] of 24.6 ± 12 µM, a Kd [2] of 26.2 ± 17.9 µM and a Kd ([2]; Kd (FP), duplicate data, duplicate data set (Fig. S1A), 14-3-3σ titrated to 10 nM FITC-labelled peptide, pH 7.5, room temperature, SD, n=3) of 22.3 ± 21.5 µM. For the same compound, the Kd [3] was 11.4 ± 5.4 µM.

In the case of `C=CC(C)(C)OC[C@H]1O[C@H](O[C@@H]2C3=C([C@H](C)COC(C)=O)C[C@H](O)[C@]3(C)/C=C3/[C@@H](COC)CC[C@H]3[C@@H](C)[C@H]2O)[C@H](O)[C@@H](OC(C)=O)[C@@H]1O` [FC-A, fusicoccin A], the “effect of FC-A on binding (FP, in words)” value [4] is reported as “small effect”, the “relative abundance of ternary complex 14-3-3σ + MDM2 + FC-A (native MS)” value ([5]; 14-3-3σ 5 μM : MDM2 10 μM : FC-A 5 μM) is reported as 6 ± 3% and the “relative abundance of ternary complex 14-3-3σ + MDM2 + FC-A (native MS)” value ([5]; 14-3-3σ 5 μM : MDM2 10 μM : FC-A 25 μM) is reported as 15 ± 5%. The “composition of ternary complex (native MS, in words)” value ([5]; 14-3-3σ 5 μM, MDM2 peptide 10 μM, FC-A 5 or 25 μM) was “a 14-3-3 dimer, a single MDM2 di-phosphorylated peptide, and a single FC-A molecule”, the “stabilization of di-phosphorylated mode I/II motif peptides, e.g. CFTR (in words)” value ([6]; ref [27]) was “shown to stabilize peptides containing mode I/II type di-phosphorylated binding motifs” and the “stabilization of mode III 14-3-3 PPIs (in words)” value ([6]; ref [43]) was “predominantly stabilizes mode III 14-3-3 PPIs”.

With “FITC-Ahx-^159SSRRRAISETEENSDELSGERQRKRHK(pS)DSISLSF^193-NH2 (SSRRRAISETEENSDELSGERQRKRHKSDSISLSF; phosphoSer186; FITC label; UniProt Q00987 159-193, looked up, fragment) [MDM2_159-193^pS186]” the “maximum polarization level (in words)” value [2] was “comparable to that observed for the di-phosphorylated MDM2_161-191^pS166/pS186 peptide” and the “binding to 14-3-3σ by FP (in words)” value [2] was “much weaker affinity than the 15 amino acid MDM2_179-193^pS186 peptide”.

In the case of “AcHN-^159SSRRRAI(pS)ETEENSD^173-NH2 (Ac-SSRRRAI[pS]ETEENSD-NH2; SMILES CC[C@H](C)[C@H](NC(=O)[C@H](C)NC(=O)[C@H](CCCNC(=N)N)NC(=O)[C@H](CCCNC(=N)N)NC(=O)[C@H](CCCNC(=N)N)NC(=O)[C@H](CO)NC(=O)[C@H](CO)NC(C)=O)C(=O)N[C@@H](COP(=O)(O)O)C(=O)N[C@@H](CCC(=O)O)C(=O)N[C@H](C(=O)N[C@@H](CCC(=O)O)C(=O)N[C@@H](CCC(=O)O)C(=O)N[C@@H](CC(N)=O)C(=O)N[C@@H](CO)C(=O)N[C@@H](CC(=O)O)C(N)=O)[C@@H](C)O; UniProt Q00987 159-173, looked up, fragment) [MDM2_159-173^pS166]”, the “binding by ITC (in words)” value [7] is reported as “could not be detected”, the “binding to 14-3-3σ by FP (in words)” value [2] is reported as “bound weakly to 14-3-3σ and saturation was not observed” and the “binding to 14-3-3ζ by FP (in words)” value ([3]; FITC-labeled peptide 10 nM, pH 7.5) is reported as “bound weakly to 14-3-3ζ, and no effective Kd value could be obtained”.

With “FITC-Ahx-^159SSRRRAI(pS)ETEENSDELSGERQRKRHKSDSISLSF^193-NH2 (SSRRRAISETEENSDELSGERQRKRHKSDSISLSF; phosphoSer166; FITC label; UniProt Q00987 159-193, looked up, fragment) [MDM2_159-193^pS166]” the “maximum polarization level (in words)” value [2] was “small increase in the maximum polarization value” and the “binding to 14-3-3σ by FP (in words)” value [2] was “saturation was not observed and an effective Kd value could not be obtained”.
